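Values below derive from 48-hour exposures of cells grown in 96-well plates, with endpoints linearly interpolated between the two concentrations bracketing the appropriate inhibition level. GI50 = concentration required for 50% inhibition of growth.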 The source made the active and inactive calls. Rule as the data show it: active = GI50 up to about 1.1 µM and inactive = higher. Where a SMILES comes first, the peptide text is derived from it. [ ]: non-standard residue; d: D form. Phe(4-Cl) = N[CH](Cc1ccc(Cl)cc1)C(=O)O
Columns and labels:
Test in all cases: NCI tumour cell line growth inhibition, 48 h
[1] = tested on: DLD-1
[2] = tested on: DMS-114
[3] = tested on: DMS-273
[4] = tested on: HOP-18
[5] = tested on: LXFL 529
[6] = tested on: M19-MEL
[7] = tested on: RXF 631
[8] = tested on: SNB-78
[9] = tested on: XF498

CC(C)NC(=O)CCN(C(=O)O)S(=O)(=O)c1ccc(NC(=O)c2ccccc2)cc1
GI50 [1]: > 41.6 µM (inactive)
GI50 [2]: > 39.4 µM (inactive)
GI50 [3]: > 42.7 µM (inactive)
GI50 [4]: > 100 µM (inactive)
GI50 [5]: > 93.8 µM (inactive)
GI50 [6]: > 53.3 µM (inactive)
GI50 [7]: > 100 µM (inactive)
GI50 [8]: > 100 µM (inactive)
GI50 [9]: > 100 µM (inactive)

COC(=O)C1(F)C(=O)NC(=O)NC1OC (configuration not stated)
GI50 [1]: 5.92 µM (inactive)
GI50 [2]: 73.3 µM (inactive)
GI50 [3]: 21.2 µM (inactive)
GI50 [4]: 88.7 µM (inactive)
GI50 [6]: 18.7 µM (inactive)
GI50 [8]: > 100 µM (inactive)
GI50 [9]: 67.1 µM (inactive)

O=C1c2ccccc2C(Br)(Br)c2ccccc21
GI50 [1]: > 31.6 µM (inactive)
GI50 [2]: > 31.6 µM (inactive)
GI50 [3]: > 31.6 µM (inactive)
GI50 [4]: > 31.6 µM (inactive)
GI50 [5]: > 31.6 µM (inactive)
GI50 [6]: > 31.6 µM (inactive)
GI50 [8]: > 100 µM (inactive)
GI50 [9]: 29.3 µM (inactive)

CCOP(=O)(OCC)/C(C#N)=C/c1ccco1
GI50 [1]: > 100 µM (inactive)
GI50 [2]: > 100 µM (inactive)
GI50 [4]: > 100 µM (inactive)
GI50 [5]: > 100 µM (inactive)
GI50 [6]: > 100 µM (inactive)
GI50 [7]: > 100 µM (inactive)
GI50 [8]: > 100 µM (inactive)
GI50 [9]: > 100 µM (inactive)

O=c1c2ccc(Br)cc2nc(-c2ccccc2)n1NC1OC(CO)C(O)C(O)C1O (configuration not stated)
GI50 [2]: > 100 µM (inactive)
GI50 [3]: > 100 µM (inactive)
GI50 [4]: > 100 µM (inactive)
GI50 [5]: > 100 µM (inactive)
GI50 [6]: > 100 µM (inactive)
GI50 [8]: > 100 µM (inactive)
GI50 [9]: > 100 µM (inactive)

COC(=O)C1=C(c2ccc(Cl)cc2)C(O)NC(NN)=N1 (configuration not stated)
GI50 [1]: > 100 µM (inactive)
GI50 [2]: > 100 µM (inactive)
GI50 [4]: > 100 µM (inactive)
GI50 [5]: > 100 µM (inactive)
GI50 [6]: > 100 µM (inactive)
GI50 [7]: > 100 µM (inactive)
GI50 [8]: > 100 µM (inactive)
GI50 [9]: > 100 µM (inactive)

CCN(CC)CCCC(C)Nc1c2ccc(Cl)cc2nc2ccc(OC)cc12 (configuration not stated)
GI50 [1]: 1.64 µM (inactive)
GI50 [2]: 1.7 µM (inactive)
GI50 [3]: 0.548 µM (active)
GI50 [5]: 1.53 µM (inactive)
GI50 [6]: 1.76 µM (inactive)
GI50 [7]: 1.77 µM (inactive)
GI50 [8]: 3.23 µM (inactive)
GI50 [9]: 1.73 µM (inactive)

NC(=S)/N=C(/c1nc2ccc(Cl)cc2nc1O)C(O)c1ccccc1Cl (configuration not stated)
GI50 [1]: > 100 µM (inactive)
GI50 [2]: > 100 µM (inactive)
GI50 [3]: > 100 µM (inactive)
GI50 [4]: 33.8 µM (inactive)
GI50 [5]: > 100 µM (inactive)
GI50 [9]: > 100 µM (inactive)

CC1(C)C(=O)/C=C\C(=O)C(C)(C)C(=O)/C=C\C(=O)C(C)(C)C(=O)/C=C\C(=O)C(C)(C)C(=O)/C=C\C1=O
GI50 [1]: 14.9 µM (inactive)
GI50 [3]: 16.8 µM (inactive)
GI50 [4]: 22.3 µM (inactive)
GI50 [5]: 7.28 µM (inactive)
GI50 [6]: 20.2 µM (inactive)
GI50 [8]: 17.4 µM (inactive)
GI50 [9]: 30.3 µM (inactive)

CN(C)CC1CCC(=C2CCCC2)C1=O (configuration not stated)
GI50 [1]: 2.82 µM (inactive)
GI50 [2]: 8.81 µM (inactive)
GI50 [3]: 18.3 µM (inactive)
GI50 [4]: 16.7 µM (inactive)
GI50 [5]: 3.24 µM (inactive)
GI50 [6]: 16.8 µM (inactive)
GI50 [8]: 12.6 µM (inactive)
GI50 [9]: 6.84 µM (inactive)

CC(=O)OCC(=O)[C@@]1(O)CC[C@H]2[C@@H]3CCC4=CC(=O)[C@H](C)C[C@]4(C)[C@H]3[C@@H](O)C[C@@]21C
GI50 [1]: > 100 µM (inactive)
GI50 [2]: > 100 µM (inactive)
GI50 [3]: > 100 µM (inactive)
GI50 [4]: > 100 µM (inactive)
GI50 [6]: > 100 µM (inactive)
GI50 [8]: 9.77 µM (inactive)
GI50 [9]: > 100 µM (inactive)

CC12CCc3ccccc3C1=NNC(=O)C2 (configuration not stated)
GI50 [1]: > 100 µM (inactive)
GI50 [2]: > 100 µM (inactive)
GI50 [3]: > 100 µM (inactive)
GI50 [4]: > 100 µM (inactive)
GI50 [5]: > 100 µM (inactive)
GI50 [6]: > 100 µM (inactive)
GI50 [8]: > 100 µM (inactive)
GI50 [9]: > 100 µM (inactive)

CC(O)C(NC(=O)C(Cc1ccccc1)NC(=O)C(NC(=O)C(CCCCN)NC(=O)C(Cc1c[nH]c2ccccc12)NC(=O)C(Cc1ccc(O)cc1)NC(=O)C(Cc1ccc(Cl)cc1)NC(=O)C(N)Cc1ccccc1)C(C)O)C(N)=O (configuration not stated) (H-F[Phe(4-Cl)]YWKTFT-NH2; configuration not given here)
GI50 [1]: 20.3 µM (inactive)
GI50 [2]: 17.3 µM (inactive)
GI50 [3]: 33 µM (inactive)
GI50 [5]: 18.4 µM (inactive)
GI50 [6]: 21.5 µM (inactive)
GI50 [7]: 19.4 µM (inactive)
GI50 [8]: 25.4 µM (inactive)
GI50 [9]: 14.2 µM (inactive)

CC1=C(c2cc(C(=O)Nc3cccc(C(F)(F)F)c3)nc(NC#N)n2)Sc2ccccc2N1
GI50 [1]: > 100 µM (inactive)
GI50 [2]: > 100 µM (inactive)
GI50 [3]: > 100 µM (inactive)
GI50 [4]: > 100 µM (inactive)
GI50 [5]: > 100 µM (inactive)
GI50 [6]: > 100 µM (inactive)
GI50 [7]: > 100 µM (inactive)
GI50 [8]: > 100 µM (inactive)

CC1=NN(C(=O)c2ccc(Cl)cc2)C(=O)/C1=C/c1ccc(O)cc1
GI50 [1]: > 100 µM (inactive)
GI50 [2]: > 100 µM (inactive)
GI50 [5]: > 100 µM (inactive)
GI50 [6]: > 100 µM (inactive)
GI50 [9]: > 100 µM (inactive)

CS(=O)(=O)NNS(=O)(=O)c1ccc(Cl)cc1
GI50 [1]: > 100 µM (inactive)
GI50 [2]: > 100 µM (inactive)
GI50 [3]: > 100 µM (inactive)
GI50 [5]: > 100 µM (inactive)
GI50 [6]: > 100 µM (inactive)
GI50 [7]: > 100 µM (inactive)
GI50 [9]: > 100 µM (inactive)

COC(=N)c1csc(C2OC(CO)C(O)C2O)n1 (configuration not stated)
GI50 [1]: 83.9 µM (inactive)
GI50 [2]: > 100 µM (inactive)
GI50 [3]: > 100 µM (inactive)
GI50 [4]: > 100 µM (inactive)
GI50 [5]: > 100 µM (inactive)
GI50 [6]: > 100 µM (inactive)
GI50 [7]: > 100 µM (inactive)
GI50 [8]: > 100 µM (inactive)
GI50 [9]: > 100 µM (inactive)

Cc1ccc2ccc3ccc(C)nc3c2n1 [NEOCUPROINE]
GI50 [1]: 0.656 µM (active)
GI50 [2]: 0.388 µM (active)
GI50 [3]: 2.36 µM (inactive)
GI50 [4]: 63.4 µM (inactive)
GI50 [5]: 0.679 µM (active)
GI50 [6]: 3.44 µM (inactive)
GI50 [8]: > 100 µM (inactive)

COc1ccc2c(c1)NC1(O)c3ccccc3C(=O)C21O (configuration not stated)
GI50 [1]: > 100 µM (inactive)
GI50 [2]: > 100 µM (inactive)
GI50 [3]: > 100 µM (inactive)
GI50 [4]: > 100 µM (inactive)
GI50 [5]: > 100 µM (inactive)
GI50 [6]: > 100 µM (inactive)
GI50 [7]: > 100 µM (inactive)
GI50 [8]: > 100 µM (inactive)
GI50 [9]: 25 µM (inactive)

CCOC(=O)c1c(-c2ccccc2)oc(-c2ccccc2)c1C(=O)OCC
GI50 [1]: > 100 µM (inactive)
GI50 [2]: > 100 µM (inactive)
GI50 [3]: > 100 µM (inactive)
GI50 [4]: > 100 µM (inactive)
GI50 [5]: 34.6 µM (inactive)
GI50 [6]: 56.4 µM (inactive)
GI50 [8]: > 100 µM (inactive)
GI50 [9]: 29.2 µM (inactive)

O=C[C@@H](CO)O[C@H](C=O)c1c[nH]c(=O)[nH]c1=O
GI50 [1]: 75 µM (inactive)
GI50 [2]: 37.6 µM (inactive)
GI50 [3]: > 81.5 µM (inactive)
GI50 [4]: 95.1 µM (inactive)
GI50 [6]: 104 µM (inactive)
GI50 [8]: 133 µM (inactive)
GI50 [9]: 24.7 µM (inactive)

CCCCC#COP(=O)(OCC)OCC
GI50 [1]: > 100 µM (inactive)
GI50 [2]: > 100 µM (inactive)
GI50 [5]: > 100 µM (inactive)
GI50 [6]: > 100 µM (inactive)
GI50 [7]: > 100 µM (inactive)
GI50 [8]: > 100 µM (inactive)

CCc1cccc(CC)c1NC(=O)C(C#N)C1=C(Cl)C(=O)c2ccccc2C1=O (configuration not stated)
GI50 [1]: 17.4 µM (inactive)
GI50 [2]: 22 µM (inactive)
GI50 [3]: 17.9 µM (inactive)
GI50 [4]: 15.5 µM (inactive)
GI50 [5]: 16.1 µM (inactive)
GI50 [6]: 19.1 µM (inactive)
GI50 [7]: 16.1 µM (inactive)
GI50 [8]: 8.15 µM (inactive)
GI50 [9]: 15.9 µM (inactive)

COc1ccc2c(c1)[n+]([O-])c(C(=O)CC(=O)C(=O)Nc1cccc(Cl)c1C)c(C)[n+]2[O-]
GI50 [3]: > 100 µM (inactive)
GI50 [4]: > 100 µM (inactive)
GI50 [5]: > 100 µM (inactive)
GI50 [6]: 42.9 µM (inactive)
GI50 [8]: > 100 µM (inactive)

CCCCCCCC1(c2ccc(N)cc2)CCC(=O)NC1=O (configuration not stated)
GI50 [1]: 33.7 µM (inactive)
GI50 [2]: 24.2 µM (inactive)
GI50 [3]: 26.9 µM (inactive)
GI50 [5]: 29.3 µM (inactive)
GI50 [6]: 37.8 µM (inactive)
GI50 [7]: 41 µM (inactive)
GI50 [8]: 31.6 µM (inactive)
GI50 [9]: 27.2 µM (inactive)

Source: ChEMBL document CHEMBL1201862, “PubChem BioAssay data set” (2004)
